Measurements: publication PMC7023430, “4-Aminobenzoic Acid Derivatives: Converting Folate Precursor to Antimicrobial and Cytotoxic Agents” (Biomolecules, 2019)
≈ marks a conversion by molar mass, not a printed value. Where two headings read alike, the source gives them in different places.

What was measured:
[1] = test system: methicillin-resistant Staphylococcus aureus ATCC 43300, CCM 4750 (MRSA); assay: Antibacterial microdilution broth method, MRSA; assay type: cell-based; details: Staphylococcus aureus
[2] = test system: Staphylococcus epidermidis H 6966/08; assay: Antibacterial microdilution broth method, S. epidermidis; assay type: cell-based; details: Staphylococcus epidermidis, H6966/08, S. epidermidis
[3] = test system: Enterococcus faecalis ATCC 29212, CCM 4224; assay: Antibacterial microdilution broth method, E. faecalis; assay type: cell-based; details: Enterococcus faecalis
[4] = test system: Escherichia coli ATCC 25922, CCM 3954; assay: Antibacterial microdilution broth method, E. coli; assay type: cell-based; details: Escherichia coli
[5] = test system: Mycobacterium avium 330/88; assay: Antimycobacterial micromethod in Šula's medium, M. avium; assay type: cell-based
[6] = test system: Mycobacterium kansasii 235/80; assay: Antimycobacterial micromethod in Šula's medium, M. kansasii 235/80; assay type: cell-based
[7] = test system: M. kansasii 6509/96 (clinical isolate); assay: Antimycobacterial micromethod in Šula's medium, M. kansasii 6509/96; assay type: cell-based; details: Mycobacterium kansasii
[8] = test system: Candida albicans ATCC 44859; assay: Antifungal microdilution broth method, C. albicans; assay type: cell-based
Method in brief: (§1)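 Broth microdilution, EUCAST, modified. Medium: RPMI-1640 + L-glutamine + 2% glucose, MOPS pH 7.0; compounds from DMSO, twofold series. Visual MIC, duplicates, ≤1-step discrepancy accepted.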

[9] = test system: Candida krusei E28; assay: Antifungal microdilution broth method, C. krusei; assay type: cell-based; details: Pichia kudriavzevii
Method in brief: as §1

[10] = test system: Candida glabrata 20/I; assay: Antifungal microdilution broth method, C. glabrata; assay type: cell-based; details: Nakaseomyces glabratus
Method in brief: as §1

[11] = test system: Trichosporon asahii 1188; assay: Antifungal microdilution broth method, T. asahii; assay type: cell-based
Method in brief: as §1

[12] = test system: Aspergillus fumigatus 231; assay: Antifungal microdilution broth method, A. fumigatus; assay type: cell-based
Method in brief: as §1

[13] = test system: Lichtheimia corymbifera 272; assay: Antifungal microdilution broth method, L. corymbifera; assay type: cell-based
Method in brief: as §1

[14] = test system: Trichophyton interdigitale 445; assay: Antifungal microdilution broth method, T. interdigitale; assay type: cell-based
Method in brief: as §1

[15] = test system: HepG2 cells; assay: Cytotoxicity, CellTiter 96 assay; assay type: cell-based, human; details: Homo sapiens, HepG2, 24 h, 24 h incubation
Procedure: HepG2, human hepatocellular carcinoma cells (ATCC HB-8065; passage 5–8) purchased from Health Protection Agency Culture Collections (ECACC, Salisbury, UK) were cultured in Minimum Essentials Eagle Medium supplemented with 10% fetal bovine serum, 1% L-glutamine solution and non-essential amino acid solution (Sigma-Aldrich, St. Louis, MO, USA) in a humidified atmosphere containing 5% CO2 at 37 °C. For subculturing, the cells were harvested after trypsin/EDTA (Sigma-Aldrich, St. Louis, USA) treatment at 37 °C. To evaluate cytotoxicity, the cells treated with the tested substances were used as experimental groups whereas untreated HepG2 cells served as control groups.
The cells were seeded in a density of 10 000 cells per well in a 96-well plate. The following day the cells were treated with each of the tested substances dissolved in DMSO (maximal incubation concentration of DMSO was 1% v/v). The tested substances were prepared at different incubation concentrations in triplicates according to their solubility. Simultaneously, the controls representing 100% cell viability, 0% cell viability (the cells treated with 10% DMSO), no cell control and vehiculum controls were also involved in triplicates. After 24 h incubation in a humidified atmosphere containing 5% CO2 at 37 °C, the reagent from the kit CellTiter 96 AQueous One Solution Cell Proliferation Assay (CellTiter 96; Promega, Fitchburg, WI, USA) was added. After 2 h incubation at 37 °C absorbance of samples was recorded at 490 nm (TECAN, Infinita M200, Grödig, Austria). A standard toxicological parameter IC50 was calculated by nonlinear regression from a semilogarithmic plot of incubation concentration versus percentage of absorbance relative to untreated controls using GraphPad Prism software (version 6; GraphPad Software, Inc., La Jolla, CA, USA).
The CellTiter 96 assay used is based on the reduction of tetrazolium dye in living cells to formazan, which is then determined colorimetrically. This reduction is related to availability of NADH or NADPH. The decline in levels of these metabolically important compounds in the cell causes that the production of formazan is reduced. For quantitative comparison of cytotoxicity, the parameter IC50 was used.

[16] = test system: ESBL-positive Klebsiella pneumoniae J 14368/08
[17] = 24 h incubation, read-out: MIC MRSA 24 h
[18] = 48 h incubation, read-out: MIC MRSA 48 h
[19] = 24 h incubation, read-out: MIC SE 24 h
[20] = 48 h incubation, read-out: MIC SE 48 h
[21] = 24 h incubation, read-out: MIC EF 24 h
[22] = 48 h incubation, read-out: MIC EF 48 h
[23] = 24 h incubation, read-out: MIC EC 24 h
[24] = 48 h incubation, read-out: MIC EC 48 h
[25] = 330/88, 336 h, 14 days incubation at 37 °C, read-out: MIC M. avium 330/88 14 d
[26] = 330/88, 504 h, 21 days incubation at 37 °C, read-out: MIC M. avium 330/88 21 d
[27] = 235/80, 168 h, 7 days incubation at 37 °C, read-out: MIC M. kansasii 235/80 7 d
[28] = 235/80, 336 h, 14 days incubation at 37 °C, read-out: MIC M. kansasii 235/80 14 d
[29] = 235/80, 504 h, 21 days incubation at 37 °C, read-out: MIC M. kansasii 235/80 21 d
[30] = 168 h, 7 days incubation at 37 °C, read-out: MIC M. kansasii 6509/96 7 d
[31] = 336 h, 14 days incubation at 37 °C, read-out: MIC M. kansasii 6509/96 14 d
[32] = 504 h, 21 days incubation at 37 °C, read-out: MIC M. kansasii 6509/96 21 d
[33] = ATCC44859, 24 h, read-out: MIC CA 24 h
[34] = ATCC44859, 48 h, read-out: MIC CA 48 h

Row | SMILES | MIC [1, 17] [µM] | MIC [1, 18] [µM] | MIC [2, 19] [µM] | MIC [2, 20] [µM] | MIC [3, 21] [µM] | MIC [3, 22] [µM] | MIC [4, 23] [µM] | MIC [4, 24] [µM] | MIC [5, 25] [µM] | MIC [5, 26] [µM] | MIC [6, 27] [µM] | MIC [6, 28] [µM] | MIC [6, 29] [µM] | MIC [7, 30] [µM] | MIC [7, 31] [µM] | MIC [7, 32] [µM] | MIC [8, 33] [µM] | MIC [8, 34] [µM] | MIC ([9]; 24 h, read-out: MIC CK 24 h) [µM] | MIC ([9]; 48 h, read-out: MIC CK 48 h) [µM] | other results
1 | O=C(O)c1ccc(N=Cc2cc(F)ccc2O)cc1 [1b, 4-[(5-Fluoro-2-hydroxybenzylidene)amino]benzoic acid] | > 500 | > 500 | > 500 | > 500 | > 500 | > 500 | > 500 | > 500 | > 1000 | > 1000 | 250 (≈ 64.8 µg/mL) | 500 (≈ 130 µg/mL) | 500 (≈ 130 µg/mL) | 500 (≈ 130 µg/mL) | 500 (≈ 130 µg/mL) | 500 (≈ 130 µg/mL) | > 500 | > 500 | > 500 | > 500 | MIC ([10]; 24 h, read-out: MIC CG 24 h): > 500 µM; MIC ([10]; 48 h, read-out: MIC CG 48 h): > 500 µM; MIC ([11]; 24 h, read-out: MIC TA 24 h): > 500 µM; MIC ([11]; 48 h, read-out: MIC TA 48 h): > 500 µM; MIC ([12]; 24 h, read-out: MIC AF 24 h): > 500 µM; MIC ([12]; 48 h, read-out: MIC AF 48 h): > 500 µM; MIC ([13]; 24 h, read-out: MIC LC 24 h): > 500 µM; MIC ([13]; 48 h, read-out: MIC LC 48 h): > 500 µM; MIC ([14]; 72 h, read-out: MIC TI 72 h): > 500 µM; MIC ([14]; 120 h, read-out: MIC TI 120 h): > 500 µM; IC50 [15]: 498 µM; MIC KP-E 24 h [16]: >500 µM; MIC KP-E 48 h [16]: >500 µM
2 | O=C(O)c1ccc(N=Cc2cc(Cl)ccc2O)cc1 [1c, 4-[(5-Chloro-2-hydroxybenzylidene)amino]benzoic acid] | > 500 | > 500 | 62.5 (≈ 17.2 µg/mL) | 62.5 (≈ 17.2 µg/mL) | > 500 | > 500 | > 500 | > 500 | 1000 (≈ 276 µg/mL) | > 1000 | 250 (≈ 68.9 µg/mL) | 250 (≈ 68.9 µg/mL) | 500 (≈ 138 µg/mL) | 500 (≈ 138 µg/mL) | 500 (≈ 138 µg/mL) | 1000 (≈ 276 µg/mL) | > 125 | > 125 | 125 (≈ 34.5 µg/mL) | 125 (≈ 34.5 µg/mL) | MIC ([10]; 24 h, read-out: MIC CG 24 h): 125 µM (≈ 34.5 µg/mL); MIC ([10]; 48 h, read-out: MIC CG 48 h): 125 µM (≈ 34.5 µg/mL); MIC ([11]; 24 h, read-out: MIC TA 24 h): > 125 µM; MIC ([11]; 48 h, read-out: MIC TA 48 h): > 125 µM; MIC ([12]; 24 h, read-out: MIC AF 24 h): > 125 µM; MIC ([12]; 48 h, read-out: MIC AF 48 h): > 125 µM; MIC ([13]; 24 h, read-out: MIC LC 24 h): > 125 µM; MIC ([13]; 48 h, read-out: MIC LC 48 h): > 125 µM; MIC ([14]; 72 h, read-out: MIC TI 72 h): 125 µM (≈ 34.5 µg/mL); MIC ([14]; 120 h, read-out: MIC TI 120 h): 125 µM (≈ 34.5 µg/mL); IC50 [15]: 143 µM; MIC KP-E 24 h [16]: >500 µM; MIC KP-E 48 h [16]: >500 µM
3 | O=C(O)c1ccc(N=Cc2cc(Br)ccc2O)cc1 [1d, 4-[(5-Bromo-2-hydroxybenzylidene)amino]benzoic acid] | > 250 | > 250 | 62.5 (≈ 20 µg/mL) | 62.5 (≈ 20 µg/mL) | > 250 | > 250 | > 250 | > 250 | 500 (≈ 160 µg/mL) | 500 (≈ 160 µg/mL) | 250 (≈ 80 µg/mL) | 250 (≈ 80 µg/mL) | 500 (≈ 160 µg/mL) | 500 (≈ 160 µg/mL) | 500 (≈ 160 µg/mL) | 500 (≈ 160 µg/mL) | 62.5 (≈ 20 µg/mL) | 62.5 (≈ 20 µg/mL) | 125 (≈ 40 µg/mL) | 125 (≈ 40 µg/mL) | MIC ([10]; 24 h, read-out: MIC CG 24 h): 62.5 µM (≈ 20 µg/mL); MIC ([10]; 48 h, read-out: MIC CG 48 h): 62.5 µM (≈ 20 µg/mL); MIC ([11]; 24 h, read-out: MIC TA 24 h): 125 µM (≈ 40 µg/mL); MIC ([11]; 48 h, read-out: MIC TA 48 h): 125 µM (≈ 40 µg/mL); MIC ([12]; 24 h, read-out: MIC AF 24 h): 250 µM (≈ 80 µg/mL); MIC ([12]; 48 h, read-out: MIC AF 48 h): 250 µM (≈ 80 µg/mL); MIC ([13]; 24 h, read-out: MIC LC 24 h): > 250 µM; MIC ([13]; 48 h, read-out: MIC LC 48 h): > 250 µM; MIC ([14]; 72 h, read-out: MIC TI 72 h): 62.5 µM (≈ 20 µg/mL); MIC ([14]; 120 h, read-out: MIC TI 120 h): 62.5 µM (≈ 20 µg/mL); IC50 [15]: 179 µM; MIC KP-E 24 h [16]: >250 µM; MIC KP-E 48 h [16]: >250 µM
